Reference: patent US7368541B2, “Trace amine receptor 1 of the African green monkey” (Merck & Co., Inc., priority 2004, dated 2008)

Biological target: agmTA1 receptor (Chlorocebus aethiops (Cercopithecus aethiops, African green monkey), UniProt A0A0D9SAC2, I11T/L334F)
Test: CRE-luciferase reporter functional assay in HEK293 cells transiently expressing agmTA1 receptor
Format: cell-based
Conditions: HEK293 cells transfected with pcDNA3.1-agmTA1 and pCRE-Luc; agonist 0.1 nM to 100 μM, 16 to 18 hours; luciferase activity

Point of comparison: `NCCc1ccc(O)cc1` [tyramine], EC50 ~16 nM. Against it:
- NCC(O)c1ccc(O)cc1 (stereo not drawn) [octopamine] — 12-fold higher, ~200 nM
- NCCc1c[nH]c2ccccc12 [tryptamine] — 59-fold higher, ~940 nM
